These results are taken from PubChem BioAssay AID1996.

Values after ≈ are worked out from the molar mass of the structure shown. Some results are limits rather than exact numbers.

The conditions of the series: buffer; pH 7.4; 200.0 µM.
Consider `N=C1SCC(=O)N1c1ccccc1Cl`, for which the solubility (kinetic) was above 34 µg/mL.
Under `CN(C(=O)COC(=O)c1ccc(Cl)nc1)C1CCS(=O)(=O)C1` (centres undefined) stands above 52 µg/mL; under `O=C(COC(=O)c1ccco1)Nc1cccc(S(=O)(=O)N2CCCCC2)c1`, 54.5 µg/mL (≈ 139 µM).
For `CCN(CC)S(=O)(=O)c1ccc(OC)c(N)c1` the value was 35.1 µg/mL (≈ 136 µM).
Under `CC(=O)N[C@H](Cc1c[nH]c2ccccc12)C(=O)O` stands above 36.9 µg/mL.
In turn, `CCOC(=O)C1=C(C)NC(C)=C(C(=O)OCC)C1C(=O)OCC(=O)NCc1ccccc1OC` gave a kinetic solubility above 71.2 µg/mL.
For `Cc1nc(NCCOc2ccccc2)sc1C(=O)Nc1ccccc1` the value was 2 µg/mL (≈ 5.66 µM).
Under `CSc1ccc(CN2CCc3c([nH]c4ccccc34)C2)cc1` stands 2 µg/mL (≈ 6.48 µM); under `Cc1ccc(NC(=O)CCSc2ccccc2)c(C)c1`, below 0.6 µg/mL; under `COc1ccc(OC)c(NC(=O)N2CCc3ccccc3C2)c1`, above 46.9 µg/mL.
Consider `CC(C)(C)c1ccc(C2(C)NC(=O)NC2=O)cc1` (centres undefined), for which the solubility (kinetic) turned out to be 35.2 µg/mL (≈ 143 µM).
Under `Cc1ccccc1CC(=O)NC1CCCc2ccccc21` (centres undefined) stands 2.7 µg/mL (≈ 9.66 µM).
Under `O=C(CSCc1ccco1)N1CCc2ccccc21` stands 36.9 µg/mL (≈ 135 µM).
For `O=C(CN1CCOCC1)Nc1ccccc1C(=O)Nc1ccccc1` the value was 39.1 µg/mL (≈ 115 µM).
`COc1ccc2[nH]c3c(=O)n(CCc4ccccc4)cnc3c2c1` came in with a solubility (kinetic) of 0.6 µg/mL (≈ 1.88 µM). Against the preceding compound, the solubility kinetic is about 65-fold lower.
For `CN(C1CCCCC1)S(=O)(=O)c1cccc2nsnc12` the value was above 46.7 µg/mL; for `CC(C)c1ccc(NC(=O)CN2CCN(c3ccccn3)CC2)cc1`, 1 µg/mL (≈ 2.95 µM).
Under `O=C(Nc1ccc(S(=O)(=O)Nc2ccccc2)cc1)C1CC1` stands 12.6 µg/mL (≈ 39.8 µM); under `O=C(O)c1ccccc1NCc1ccsc1`, above 35 µg/mL; under `CN(C)C(=S)Nc1cccc(F)c1`, 28.5 µg/mL (≈ 144 µM).
For the compound `O=C(Nc1csc([N+](=O)[O-])c1)Nc1ccccc1Cl`, the kinetic solubility was 1 µg/mL (≈ 3.36 µM).
For `O=C(Nc1nc2cc3c(cc2s1)OCCO3)c1ccco1` the value was 4.8 µg/mL (≈ 15.9 µM); for `Cc1cccc(NC(=O)c2cc([N+](=O)[O-])ccc2N2CCCCC2)n1`, 0.4 µg/mL (≈ 1.18 µM); for `CCC(Oc1ccccc1)C(=O)Nc1ccccc1N1CCCCC1` (centres undefined), 0.7 µg/mL (≈ 2.07 µM).
Under `Cc1csc(SCC(=O)NCc2ccccc2)n1` stands above 41.8 µg/mL; under `O=C(O)c1cccc(Nc2c3ccccc3nc3ccccc23)c1`, 2.4 µg/mL (≈ 7.63 µM); under `CCOc1ccc(NC(=S)NC23CN4CN(CN(C4)C2)C3)cc1`, above 50 µg/mL.
For `COc1ccc(Cn2cnc3c4cc(F)ccc4n(C)c3c2=O)cc1` the value was below 0.2 µg/mL; for `COc1cc2ccccc2cc1C(=O)NC(=S)Nc1cccc(C(=O)O)c1C`, 18.3 µg/mL (≈ 46.4 µM); for `C=CCn1c(O)c(N=O)c2ccccc21`, above 30.3 µg/mL.
Consider `CCOc1ccccc1C(=O)NCC(=O)N1CCC(C)CC1`, for which the kinetic solubility was above 45.7 µg/mL.
In turn, `CC1CCC(C(C)C)C(OCC(O)CNC(C)(C)C)C1.Cl` (centres undefined) showed a kinetic solubility above 48.3 µg/mL.
Consider `Clc1ccc(-c2noc(/C=C/c3ccccc3)n2)cc1`, for which the kinetic solubility is below 0.3 µg/mL.
Under `Cc1ccccc1NC(=O)COC(=O)c1cc[n+]([O-])cc1` stands above 42.9 µg/mL.
For `CC1C(Br)C(=O)NC(=O)N1Cc1ccccc1` (centres undefined) the value was 41.4 µg/mL (≈ 139 µM); for `NC(=O)c1ccccc1OCc1cccc2ccccc12`, 2.9 µg/mL (≈ 10.5 µM); for `CNc1nc(N)c([N+](=O)[O-])c(Nc2ccccc2OC)n1`, 0.7 µg/mL (≈ 2.41 µM).
For `O=C(O)[C@H]1Cc2ccccc2CN1S(=O)(=O)c1ccc(F)cc1` the value was above 50.3 µg/mL; for `O=C(NC(=S)NCCc1ccccc1)c1cccc(Cl)c1`, 0.6 µg/mL (≈ 1.88 µM); for `CCCCCCCCNC(CO)(CO)CO`, 29.5 µg/mL (≈ 126 µM).
As to `O=C(Nc1ccc(S(=O)(=O)Nc2ncccn2)cc1)C(F)(F)F`, the solubility (kinetic) was above 51.9 µg/mL.
Under `COCc1cc(C)n(CC(=O)NCC2CCCO2)c(=O)c1C#N` (centres undefined) stands 41.8 µg/mL (≈ 131 µM).
For `Fc1cc2[nH]c(=S)[nH]c2cc1Cl`, the kinetic solubility was 26.5 µg/mL (≈ 131 µM).
For `O=C(Nc1cc(N2CCOCC2)ncn1)NC1(C(F)(F)F)Oc2ccc(Cl)cc2O1` (centres undefined) the value was 65.5 µg/mL (≈ 147 µM); for `CC(=O)NS(=O)(=O)c1ccc(NC(=S)NC(=O)C2CCC2)cc1`, above 53.3 µg/mL.
Under `CCn1c(CCCNC(=O)c2ccco2)nc2ccccc21` stands 42.1 µg/mL (≈ 142 µM); under `Fc1ccc(N2CN(Cc3cccnc3)CNC2=S)cc1`, above 45.4 µg/mL.
For `CCOC(=O)c1sc2nc(C)nc(NC3CCC(O)CC3)c2c1C` (centres undefined) the value was below 0.2 µg/mL; for `Cc1ccc(C2N=C(N)Nc3nc(=O)c4ccccc4n32)cc1` (centres undefined), 3.1 µg/mL (≈ 10.2 µM); for `Cc1ccc(NC(=O)CCC2CC(C)(C)OC2=O)cc1` (centres undefined), above 41.3 µg/mL.
`COC(=O)c1ccc(COC(=O)C2CCN(S(=O)(=O)c3ccccc3C(=O)OC)CC2)cc1`: the solubility (kinetic) is 11 µg/mL (≈ 23.1 µM).
For `Cn1c(=O)c2c(O)c(C=NCc3ccccc3)c(=O)n(C)c2n(C)c1=O` the value was 51.3 µg/mL (≈ 145 µM); for `CN1C(=O)CN=C(c2ccc(Cl)cc2)c2cc(Cl)ccc21`, above 47.9 µg/mL; for `Cc1[nH]c2ccccc2c1C(=O)CN1CC(C)CC(C)C1` (centres undefined), above 42.7 µg/mL.
For `CC(=O)n1c(-c2ccccc2)c(-c2ccccc2)n(C)c1=O` the value was above 43.9 µg/mL.
For `Cc1cc(C)cc(C(=O)OCC(=O)NCc2ccco2)c1` the value was above 43.1 µg/mL; for `O=C(COc1ccccc1)NC1CCS(=O)(=O)C1` (centres undefined), above 40.4 µg/mL.
`COc1ccc(N2CCN(C(CNC(=O)C(C)(C)C)c3ccco3)CC2)cc1` (centres undefined) registered a kinetic solubility of 54.8 µg/mL (≈ 142 µM).
Under `O=C(CN1C(=O)NC(CCc2ccccc2)C1=O)Nc1cccc(Br)c1` (centres undefined) stands 5.2 µg/mL (≈ 12.5 µM); under `CCCCCOc1ccc(C(=O)OC(C)C(=O)NCc2ccco2)cc1` (centres undefined), 2.9 µg/mL (≈ 8.07 µM); under `O=C(COc1ccccc1)N1CCN(C(=O)c2ccccc2F)CC1`, above 51.4 µg/mL.
Take `CNc1cc(C)c(C#N)c2nc3ccccc3n12`: the kinetic solubility worked out at 2.6 µg/mL (≈ 11 µM).
Regarding `COc1ccccc1CC(=O)N1CCN(c2ccccc2F)CC1`, the solubility (kinetic) was 46.8 µg/mL (≈ 143 µM).
For `Cc1ccc(S(=O)(=O)NCCCC(=O)N2CCC(C)CC2)cc1` the value was above 50.8 µg/mL; for `O=C(O)c1c(NC(=O)N2CCCC2)sc2c1CCCC2`, above 44.2 µg/mL; for `O=C(NC(=O)N1CCCCC1)c1ccc(Cl)cc1`, above 40 µg/mL.
For `Cc1c(C(=O)N(C)Cc2cccc(F)c2)oc2c(Cl)cccc12` the value was 3.6 µg/mL (≈ 10.9 µM).
For `CSC(=NCc1ccco1)NC#N` the value was 27.8 µg/mL (≈ 142 µM); for `CCN(CC)C(=S)Nc1ccc(OC(F)F)cc1`, 40.3 µg/mL (≈ 147 µM); for `CC(C)Cc1cc(C(=O)Nc2ccc(Br)cc2)no1`, below 0.3 µg/mL.
On to `COc1ccccc1C(=O)OCc1ccc2sc(C)nc2c1`, for which the solubility (kinetic) was determined as 3.1 µg/mL (≈ 9.89 µM).
With `CCC(Sc1ncccc1Nc1ccccn1)C(=O)O` (centres undefined), the kinetic solubility was above 43.4 µg/mL.
Under `C/C(=N\O)C(C)(C)Nc1ccc(Cl)cc1` stands 32.1 µg/mL (≈ 142 µM); under `COc1ccc(N=Cc2nc(-c3ccccc3)oc2OC(C)=O)cc1`, 1.6 µg/mL (≈ 4.76 µM).
For `CC(=O)Nc1ccc(OCC(=O)NCc2ccc(C)cc2)cc1` the value was above 46.9 µg/mL; for `COC(=O)Cn1ncc(N(C)Cc2ccccc2)c(Cl)c1=O`, above 48.3 µg/mL.
Under `CCOC(=O)c1c(NC(=O)CNC2CCCCC2)sc(C)c1C` stands below 0.4 µg/mL; under `O=C(NCC1CCCO1)c1cc2cc(F)ccc2[nH]1` (centres undefined), 36.8 µg/mL (≈ 140 µM).
The compound `COc1cc(CN(C)Cc2cccc3ccccc23)cc([N+](=O)[O-])c1O` displayed a kinetic solubility of 33.8 µg/mL (≈ 95.9 µM).
Under `O=[N+]([O-])c1cccnc1SCc1ccccc1` stands 0.3 µg/mL (≈ 1.22 µM); under `CCOC(=O)CNC(=O)Cn1cnc2c(oc3ccccc32)c1=O`, above 49.4 µg/mL; under `Cc1cc(C)c(C#N)c(Nc2ccccc2F)n1`, 5.1 µg/mL (≈ 21.1 µM).
Under `O=c1[nH]c(=S)n(C2CCCCC2)c(O)c1C=NCCN1CCOCC1` stands 53 µg/mL (≈ 145 µM); under `Cc1ccccc1CC(=O)N1CCN(S(=O)(=O)c2ccc(Cl)s2)CC1`, 5.6 µg/mL (≈ 14 µM).
On to `CCOC(=O)c1cc2cc(OCc3ccccc3)ccc2nc1C`, for which the kinetic solubility is below 0.7 µg/mL.
For `CCOC(=O)c1c(N)c2cc([N+](=O)[O-])cnc2n1C` the value was 1.9 µg/mL (≈ 7.19 µM).
For `Cc1ccc(F)c(NC(=O)c2cncn2-c2ccccc2)c1` the value was 41.2 µg/mL (≈ 140 µM); for `O=C(c1c(F)c(F)c(F)c(F)c1F)N1CCN(Cc2ccc3c(c2)OCO3)CC1`, 2.3 µg/mL (≈ 5.55 µM); for `O=C(Nc1ccc(CN2CCOCC2)cc1)c1ccc(Cl)cc1`, 9.2 µg/mL (≈ 27.8 µM).
`CNC(=O)c1cc(C(=O)c2ccccc2Br)c[nH]1` returned a solubility (kinetic) above 46.1 µg/mL.
Under `Brc1cc(Br)c2nc3c(cc2c1)CCC3` stands 1.9 µg/mL (≈ 5.81 µM).
Regarding `Cc1ccc(CCC(=O)Nc2ccc([N+](=O)[O-])cc2Cl)o1`, the solubility (kinetic) was 7.5 µg/mL (≈ 24.3 µM). Compared with the last compound, the solubility kinetic is about 3.9-fold higher.
For `O=C(Cn1c(=O)oc2ccccc21)Nc1ccccc1C(F)(F)F` the value was 10 µg/mL (≈ 29.7 µM); for `CCCCc1nnc(SCC(=O)Nc2nccs2)n1CC`, above 48.8 µg/mL; for `Cc1ccc(C(=O)Nc2c(C)cc(-c3ccccc3)oc2=O)cc1`, below 0.7 µg/mL.
For `CCOC(=O)C(=O)c1c(-c2ccccc2)nc2ccccn12` the value was 33.7 µg/mL (≈ 115 µM).
The compound `COc1ccc(CC(=O)O/N=C(\N)c2ccccc2)cc1OC` registered a solubility (kinetic) of 37.5 µg/mL (≈ 119 µM).
For the compound `CCOC(=O)c1c(N)sc(C(=O)Nc2ccccc2)c1C`, the kinetic solubility is 40.7 µg/mL (≈ 134 µM).
On to `Cc1ccc(-n2c(C)c([N+](=O)[O-])c3ccc(O)cc32)cc1`, for which the solubility (kinetic) was 0.4 µg/mL (≈ 1.42 µM). Against the preceding compound, the solubility kinetic is about 100-fold lower.
For `O=C(CSc1ncnc2ccccc12)NC1CCS(=O)(=O)C1` (centres undefined) the value was above 50.6 µg/mL; for `Cc1noc(/C=C/c2cccnc2)c1[N+](=O)[O-]`, 33.7 µg/mL (≈ 146 µM).
Under `O=c1[nH]c(O)c(/C=C2\C=Nc3ccc(Br)cc32)[nH]1` stands 3.3 µg/mL (≈ 10.8 µM); under `COc1ccc(NC(=S)NC2CCCC2)c(OC)c1`, above 42.1 µg/mL.
For `CSc1ncccc1C(=O)Nc1ccccc1N1CCOCC1` the value was above 49.4 µg/mL.

One may read the solubility (kinetic) as solubility judged after dilution from a stock solution rather than from solid.
